Experimental data as given in patent publication US20230059107A1, “STABLE TOPICAL COMPOSITIONS OF FENOLDOPAM” (TARO PHARMACEUTICAL INDUSTRIES LTD., priority 2019, published 2023).
Read-outs that look alike come from different tables or passages of the source. Marks after values point to notes of the source that are not given here.

Key:
[1] = tested on: inflammatory markers of the psoriatic xenotransplants (Ki-67, HLA-DR, CD8, CD4, IL-17); test: Human skin xenotransplant model of psoriasis: immunohistochemical staining for Ki-67, HLA-DR, CD8, CD4 and IL-17; assay type: in vivo
Method: (§1) Fourteen days after starting the treatment (four weeks following the injections), blood samples are taken and the skin is harvested. The grafts are analyzed histologically and immunohistochemically for psoriatic parameters.
We then stained skin sections derived from the various human xenotransplants for Ki-67 and HLA-DR: the first, a marker of cellular hyperproliferation and the second, for immune stimulation. Strong expression of Ki-67 was observed along the lower part of the epidermis in all control and vehicle groups and in the non-responders FMT xenotransplants. […] However, weak or absent HLA-DR expression was observed along the epidermis in the responders transplants treated with FMT.
Negative expression—no staining Mild—minor level of cell infiltrates of positive cells along the dermis Dense—intense level of cell infiltrates of positive cells along the dermis
To characterize the inflammatory infiltrate in the skin, we examined the expression of CD8, CD4 and IL-17+cells, which mark T lymphocytes (FIG. 1 and Tables 15, 16).
Negative expression—no staining Mild—minor level of cell infiltrates of positive cells along the dermis Dense—intense level of cell infiltrates of CD8+, CD4+IL17+positive cells along the dermis

[2] = tested on: psoriatic xenotransplants (normal human skin grafted, psoriatic patient T-cell injected); test: Human skin xenotransplant model of psoriasis in beige-SCID mice: histological evaluation and epidermal thickness; assay type: in vivo; settings: for Mean epidermal thickness: mean of the group
Method: The efficacy of the topical stable Fenoldopam compositions developed according to the current disclosure for the treatment of psoriasis is evaluated in a human skin xenotransplant model in mice. Human skin xenotransplant models are optimally suited for performing preclinical assays that explore novel anti-psoriatic agents/treatment strategies before initiating clinical trials. The purpose of this study is to evaluate the effectiveness of Fenoldopam mesylate formulations on the histological parameters of psoriasis in the human T-cell-driven model of psoriasis.
The patients included in the study have classic plaque psoriasis, and were not treated for the disease. Normal skin from one healthy volunteer is obtained for grafting.
Healthy human skin pieces with a width of 0.4 mm and surface area of 1.5×1.5 cm are provided from residual skin of routine plastic surgery procedures from the Plastic Surgery Department of the Rambam Health Care Campus, Haifa, Israel. In addition, 20 mL blood samples were taken from the psoriatic patients.
The normal healthy human donor skin is transplanted onto the Beige-severe combined immuno-deficient mice (SCID) (weight ˜20 g).
The mice are divided into several treatment groups. Mice of each group receive activated allogeneic T-cells expressing high levels of NK cells receptors from the psoriatic donor.
Peripheral Blood Mononuclear Cells (PBMCs) from the psoriatic patients' blood are isolated and cultured in the presence of a high dose of IL-2 (100 U/mL of media) for 14 days to activate allogeneic T-cells expressing high levels of NK cells receptors.
Four weeks following the engraftment, each mouse is injected with 1×10^7 activated allogeneic IL2-enriched PBMCS from psoriatic patients (1×10^7 cells injected/mouse). Cells from different psoriasis patients are distributed equally between treatment groups. Each patient is represented in each treatment group.
Two weeks following the injections, the mice are divided randomly and treated daily for 14 constitutive days with the different topical formulations.
as §1
In this model, a psoriasis-like phenotype is induced in normal human skin grafted onto beige-severe combined immunodeficient mice by intradermal injection of natural killer/T-cells derived from psoriatic patients (Gilhar et al., J Invest Dermatol. 2002 Aug;119(2):384-91.).
The purpose of these further experiments was to verify the therapeutic effect of FMT and compare the therapeutic effects of two doses (1% versus 2%) of two different formulations (cream versus gel).
In order to address the aim of the experiment, the psoriatic humanized mice were established. 10 psoriatic patients were recruited (seven males and three females), mean age 44 years, ranging from 22 to 61 years for testing. All patients had classic plaque psoriasis. None of the patients had been treated. Normal skin from one healthy volunteer was obtained for grafting.
The experiment comprised 72 mice divided into eight groups (Table 10). All of the mice were injected with T-cells expressing NK receptors obtained from psoriatic patients according to the protocol. Thereafter, the mice were separated as follows: Group 1: non-treated control; Group 2: dexamethasone; Group 3: FMT Gel 1%; Group 4: FMT Gel 2%; Group 5: Gel (vehicle); Group 6: FMT Cream 1%; Group 7: FMT Cream 2%; and Group 8: Cream (vehicle). All groups were treated from day 14 until day 28 post T-cells injection.

[3] = cited from earlier work
[4] = intense level of cell infiltrates
[5] = minor level of cell infiltrates
[6] = topical bid, day 14 until day 28 post T-cells injection

In the case of `C[C@@H]1C[C@H]2[C@@H]3CCC4=CC(=O)C=C[C@]4(C)[C@@]3(F)[C@@H](O)C[C@]2(C)[C@@]1(O)C(=O)CO` [Dexamethasone], the “Epidermal HLA-DR Expression: Diffuse (grafts/total)” value ([1]; Diffuse—more than 50% of the epidermal area) was 0/6, the “Epidermal HLA-DR Expression: Focal (grafts/total)” value ([1]; Focal—less than 50% of the epidermal area) was 1/6 and the “CD4 Expression: Dense” value ([1]; Non responders grafts) was 0/6. For the same compound, the “CD4 Expression: Negative/Mild” value ([1]; Non responders grafts) was 0/6, the “CD8 Expression: Dense” value ([1]; Non responders grafts) was 0/6 and the “CD8 Expression: Negative/Mild” value ([1]; Non responders grafts) was 0/6. The “Dermal HLA-DR Expression: Dense” value ([1]; Non responders grafts) was 0/6, the “Dermal HLA-DR Expression: Negative/Mild” value ([1]; Non responders grafts) was 0/6 and the “IL-17 Expression: Dense” value ([1]; Non responders grafts) was 0/6. For the same compound, the “IL-17 Expression: Negative/Mild” value ([1]; Non responders grafts) was 0/6, the “CD4 Expression: Dense” value ([1]; Responders grafts) was 0/6 and the “CD4 Expression: Negative/Mild” value ([1]; Responders grafts) was 6/6. The “CD8 Expression: Dense” value ([1]; Responders grafts) was 0/6, the “CD8 Expression: Negative/Mild” value ([1]; Responders grafts) was 6/6 and the “Dermal HLA-DR Expression: Dense” value ([1]; Responders grafts) was 0/6. The “Dermal HLA-DR Expression: Negative/Mild” value ([1]; Responders grafts) was 6/6, the “IL-17 Expression: Dense” value ([1]; Responders grafts) was 0/6 and the “IL-17 Expression: Negative/Mild” value ([1]; Responders grafts) was 6/6. For the same compound, the “Epidermal HLA-DR Expression: Negative (grafts/total)” value ([1]; in vivo) was 5/6, the “CD4 positive cells along the dermis: Dense” value [1, 4] was 0/10 and the “CD8 positive cells along the dermis: Dense” value [1, 4] was 0/10. For the same compound, the “IL-17 positive cells along the dermis: Dense” value [1, 4] was 0/10, the “Dermal HLA-DR Expression: Dense (grafts/total)” value ([1]; intense level of cell infiltrates of positive cells along the dermis) was 0/6 and the “CD4 positive cells along the dermis: Mild” value [1, 5] was 2/6. The “CD8 positive cells along the dermis: Mild” value [1, 5] was 1/6, the “IL-17 positive cells along the dermis: Mild” value [1, 5] was 1/6 and the “Dermal HLA-DR Expression: Mild (grafts/total)” value ([1]; minor level of cell infiltrates of positive cells along the dermis) was 2/6. The “CD4 positive cells along the dermis: Negative” value ([1]; no staining) was 4/6, the “CD8 positive cells along the dermis: Negative” value ([1]; no staining) was 5/6 and the “Dermal HLA-DR Expression: Negative (grafts/total)” value ([1]; no staining) was 4/6. The “IL-17 positive cells along the dermis: Negative” value ([1]; no staining) was 5/6, the Epidermal thickness ([2]; Donor 1) was 338 μm and the Epidermal thickness ([2]; Donor 2) was 280 μm. It also gave an Epidermal thickness ([2]; Donor 3) of 290 μm, an Epidermal thickness ([2]; Donor 4) of 300 μm and an Epidermal thickness ([2]; Donor 5) of 305 μm. The Epidermal thickness ([2]; Donor 6) was 260 μm, the Mean epidermal thickness ([2]; listed as Dexa) was 295* μm and the Mean epidermal thickness ([2]; listed as dexamethasone) was 295 ±26 μm. The “Complete Recovery (grafts/total)” value [2, 6] was 5/6, the “Partial Recovery (grafts/total)” value [2, 6] was 1/6 and the “Psoriatic Features (grafts/total)” value [2, 6] was 0/6.

For `CS(=O)(=O)O.Oc1ccc(C2CNCCc3c2cc(O)c(O)c3Cl)cc1` (centres unmarked) [Fenoldopam mesylate, 6-chloro-2,3,4,5-tetrahydro-1-(4-hydroxyphenyl)-1H-3-benzazepine-7,8-diol, methanesulfonate], the solubility ([3]; in propylene glycol) is listed as “soluble” and the solubility ([3]; in water, ethanol and methanol) is listed as “sparingly soluble”.
